From the pKa sets of Baltruschat and Czodrowski (2020)
Where a SMILES comes first, the peptide text is derived from it.

Conditions: basic group
Work on `Nc1ccc2c(N)c3ccccc3nc2c1` yielded a pKa of 11.5. With `c1ccc(-c2ccoc2)nc1` the pKa was 4.65. `FC(F)(F)c1cccc2ncccc12` gave a pKa of 3.09. `CN1CCCN(C)c2cccc3cccc1c23` showed a pKa of 10.3. `NCC(=O)N[C@@H](Cc1c[nH]cn1)C(=O)[O-]` (H-Gly-His-OH) showed a pKa of 8.14. With `Cc1ccc(N)cc1Cl` the pKa was 4.05. `CC(C)CN[C@H](c1ccccc1)[C@H](O)c1ccccc1` gave a pKa of 11.3. For `COC(=O)[C@@H](N)Cc1c[nH]cn1`, the pKa was 7.33. Compound `Cc1ccc([N+](=O)[O-])c2c(NCCC[NH+](C)C)c3ccccc3nc12` has a pKa of 6.29. `CCOCCNc1ccccc1` showed a pKa of 4.04. With `NCC(=O)c1ccc(O)cc1` the pKa was 8.05. `Nc1cnc([S-])nc1N` gave a pKa of 10.4. For `CCCCCC/N=C/c1c(C)cnc(C)c1O`, the pKa was 6.22. In the case of `CCCCNCc1ccccc1`, the pKa is reported as 9.46. Compound `N#CC(C#N)=NNc1ccccc1Br` has a pKa of -0.8. With `COc1ccc2c3c1O[C@@H]1C(=O)CC[C@]4(O)[C@H](C2)N(C)CC[C@@]314` the pKa was 8.6. `CNCC(=O)NCCc1c[nH]cn1` showed a pKa of 8.31. Compound `Cn1cncc1C[C@H]([NH3+])C(=O)[O-]` has a pKa of 6.53. Compound `O=C(O)c1ccoc1` has a pKa of -0.59. For `CC1=CC(=C2C=CC=CC=C2)C=C(C)C1=O`, the pKa was 6.26. Compound `CC(O)CN(CCO)C(C)(C)C` (centres undefined) has a pKa of 9.2. Work on `[Se-]c1ncnc2nc[nH]c12` yielded a pKa of 7.33. `CCN(CC)CCN(CC)CC` gave a pKa of 9.55. For `N#Cc1cc(-c2ccccc2)nnc1NCCN1CCOCC1`, the pKa was 6.5. For `Cc1cccc(N)c1-c1c(C)cccc1[NH3+]`, the pKa was 2.1. Compound `CP(=O)(Cc1ccccc1)c1ccccc1` (centres undefined) has a pKa of -1.82. In the case of `CC(CN1c2ccccc2Sc2ccccc21)N(C)C` (centres undefined), the pKa is reported as 8.65. Work on `Nc1ncnc2ccccc12` yielded a pKa of 5.79. For `C=CC(=O)NC(C)(C)CCN(C)C`, the pKa was 9.39. `CNc1cc[nH+]c([O-])n1` showed a pKa of 4.55. Compound `Oc1ccc2c(c1)Nc1ccccc1N2` has a pKa of 1.8. For `CCC(C)NC(C)C` (centres undefined), the pKa was 11. With `C=Cc1ccc(C)nc1` the pKa was 5.67. In the case of `CN(C)c1ccc(C(O)(c2ccccc2)c2ccc(N(C)C)cc2)cc1`, the pKa is reported as 6.93. `NC(=[NH2+])Nc1nccc(-c2csc(N)n2)n1` gave a pKa of 2.7. Compound `Nc1ncc(Sc2ccccc2)s1` has a pKa of 4.16. `Cc1cc(N)cc(C)c1[N+](=O)[O-]` gave a pKa of 2.56. Compound `O=C([O-])c1c2cccc1COCCOCc1ncc([nH]1)COCCOC2` has a pKa of 7.05. With `CCCNC(C)C(=O)Nc1ccccc1C` (centres undefined) the pKa was 7.32. For `OC(CN1CCCC1)C[NH+]1CCCC1`, the pKa was 7.75. `C=C(C)C(=O)OCCNC` showed a pKa of 8.96. With `CCOc1cccc(N)c1` the pKa was 4.15. Compound `Cc1ccc(C(=O)O)s1` has a pKa of -0.57. With `CCn1nc(-c2ccccc2)sc1=N` the pKa was 6.1. `CCOc1ccc2nc3c(c(N4CCOCC4)c2c1)CCC3` showed a pKa of 7.11. In the case of `CC(=O)n1ccnc1`, the pKa is reported as 3.6. With `OC(CN1CCCC1)CN1CCCC1` the pKa was 9.73. `CC1=Nc2ccc([N+](=O)[O-])cc2N=C(C)C1` gave a pKa of 4.95. Work on `NCCc1ccc(Br)cc1` yielded a pKa of 9.65. `[NH3+]C(CC(=O)[O-])c1ccccn1` (centres undefined) showed a pKa of 2.94. With `Cc1cc(Cl)n(C)c2nc3ccccc3c1-2` the pKa was 7.45. In the case of `CCc1cc(Cl)c([O-])c(C(=O)NC[C@H]2CCCN2CC)c1OC`, the pKa is reported as 9.54. With `Cc1cncc[nH+]1` the pKa was -4.89. Compound `CN1CCCN(C)Cc2ccccc2OCCOc2ccccc2C1` has a pKa of 10.1. In the case of `COc1ccc(N)cc1C(=O)N[C@@H]1C[C@H]2CC[C@@H](C1)N2Cc1ccccc1`, the pKa is reported as 8.86. For `Cc1cc(C)c(CO)c(C)n1`, the pKa was 7.1. Compound `CC1CN(C)CCN1C` (centres undefined) has a pKa of 8.36. Work on `c1ccc(N=P(c2ccccc2)(c2ccccc2)c2ccccc2)cc1` yielded a pKa of -0.92. Work on `Nc1ccc(-c2cnc(-c3ccccc3)o2)cc1` yielded a pKa of 3.68. `Nc1ccc2[nH]c[nH+]c2c1` gave a pKa of 3.07. For `c1ccc(-c2ccc3nc(C[NH+]4CCOCC4)cn3n2)cc1`, the pKa was 1.4. `O=C(CN1CCCCC1)NCc1ccccc1` gave a pKa of 7.71. Compound `CCCn1cncn1` has a pKa of 2.36. With `CCCCN1CCCCC1C(=O)Nc1c(C)cccc1C` (centres undefined) the pKa was 7.27. For `Nc1n[nH]c2ccccc12`, the pKa was 3.15. For `C1CN2CCCN2C1`, the pKa was 7.95. For `c1ccc2c(c1)C1CCN2C1` (centres undefined), the pKa was 7.1. Work on `NCCC[n+]1ccc2c([N+](=O)[O-])cccc2c1` yielded a pKa of 8.48. `CCN(CC)Cc1cc(OC)ccc1O` showed a pKa of 8.62. `Cc1cc([O-])n(C2CCN(C)CC2)n1` gave a pKa of 9. In the case of `CCSC(=O)c1cccc(Br)c1`, the pKa is reported as -5.53. With `Cc1cc(C)c2cccc(O)c2n1` the pKa was 6.2. With `Cc1ccnc2ccccc12` the pKa was 5.51. Compound `CN(C)c1ncc(-c2ccccc2)s1` has a pKa of 4.89. With `NNCCO` the pKa was 7.12. In the case of `COc1cc(/C=N/c2ncc3nc[nH]c3n2)ccc1O`, the pKa is reported as 2.79. Work on `CN1CCC1` yielded a pKa of 10.4. `COc1ccc(CN)cc1` gave a pKa of 9.67. `[O-]c1ncnc2nc[nH]c12` showed a pKa of 8.81. In the case of `NCc1ccncc1`, the pKa is reported as 8.3. With `CCN(CC)N(CC)CC` the pKa was 7.31. Work on `CN(C)c1ccc(/C=C/c2cc[n+]([O-])cc2)cc1` yielded a pKa of 4.3. With `COc1cccnn1` the pKa was 2.52. In the case of `C(=C\c1ccncc1)/c1ccncc1`, the pKa is reported as 5.82. With `CC(=O)c1ccncc1` the pKa was 3.6. For `OCC1CN2CCC1CC2` (centres undefined), the pKa was 10.6. `c1ccc(-c2cnc(-c3ccccc3)o2)cc1` gave a pKa of 0.84. With `[O-]c1ccnc([O-])c1` the pKa was 13. Compound `Cc1ccc([N+](=O)[O-])cc1/C(=N/CCCN(C)C)c1ccccc1` has a pKa of 8.8.
